We go through three molecules from US11261222B2, “Transdermal peptide with nuclear localization ability and use thereof” (SOOCHOW UNIVERSITY, priority 2017, dated 2022).

Where a SMILES comes first, the peptide text is derived from it. The star is where a group is joined. FITC = O=C1OC2(c3ccc(O)cc3Oc3cc(O)ccc32)c2ccc(NC(=S)*)cc21

The test system of one data set is skin of SD rats. As to the kind of experiment: transdermal penetration effect on back skin of SD rats, fluorescence microscopy of skin sections. It is filed as in vivo. The conditions noted are these: 50 μL of 500 μmol/L FITC-labeled peptide solution applied on back skin, three hours. The method, then: The experiments were performed using 8-week old SD rats (body weight 250 g). The back of SD rats was shaved, and the FITC-labeled peptide and control peptide prepared in Example 1 were each dissolved in a phosphate buffer (PBS, pH=7.4) to prepare a solution having a concentration of 500 μmol/L. The SD rats were divided into three groups, including: 1) a control group, in which no polypeptide solution was applied on the back; 2) a control group, in which the peptide as shown in SEQ ID NO: 3 was applied on the dorsal epidermis of rats; and 3) a treatment group, in which the peptide as shown in SEQ ID NO: 1 was applied on the back skin of rats. The rats in Groups 2) and 3) were each applied with 50 μL of the polypeptide solution. After three hours, the polypeptide in the applied area was washed off; the SD rats were sacrificed, and the skin applied with the polypeptide was taken, frozen, sectioned, and then observed under a fluorescence microscope.

Data set [1] can be described thus: isoelectric point of the transdermal peptide. The format is physicochemical.

As for `CC(C)C[C@H](NC(=O)[C@H](Cc1ccc(O)cc1)NC(=O)[C@H](CCCCN)NC(=O)[C@H](CCCCN)NC(=O)CNC(=O)[C@H](CO)NC(=O)[C@@H]1CCCN1C(=O)[C@H](CC(C)C)NC(=O)[C@H](CCC(=O)O)NC(=O)[C@H](CCCCN)NC(=O)[C@@H](NC(=O)[C@H](Cc1ccccc1)NC(=O)[C@@H](NC(=O)CNC(=O)[C@H](CCCCN)NC(=O)[C@@H]1CCCN1C(=O)[C@H](Cc1ccccc1)NC(=O)[C@H](CC(C)C)NC(=O)[C@H](CCCCN)NC(=O)[C@H](CCCCN)NC(=S)Nc1ccc2c(c1)C(=O)OC21c2ccc(O)cc2Oc2cc(O)ccc21)C(C)C)[C@@H](C)O)C(=O)N[C@@H](CCCNC(=N)N)C(=O)O` [peptide of the present invention] ({FITC}-KKLFPKGVFTKELPSGKKYLR-OH), the “fluorescence in the dermal tissue of the skin” value in the data set with skin of SD rats is recorded as “clearly observed in the skin appendages of the dermis”.

For the molecule `CC[C@H](C)[C@H](NC(=O)[C@H](CC(=O)O)NC(=O)[C@H](CCCCN)NC(=O)[C@H](CO)NC(=O)[C@H](Cc1c[nH]c2ccccc12)NC(=O)[C@H](C)NC(=O)[C@H](CC(C)C)NC(=O)[C@H](Cc1c[nH]cn1)NC(=O)[C@H](CC(=O)O)NC(=O)[C@H](CCC(=O)O)NC(=O)[C@@H](NC(=O)[C@H](CO)NC(=O)[C@H](CC(=O)O)NC(=O)[C@@H](NC(=O)[C@H](CO)NC(=O)[C@H](CC(C)C)NC(=O)[C@H](C)NC(=O)[C@@H](NC(=S)Nc1ccc2c(c1)C(=O)OC21c2ccc(O)cc2Oc2cc(O)ccc21)[C@@H](C)CC)[C@@H](C)CC)C(C)C)C(=O)N[C@@H](CC(N)=O)C(=O)N[C@@H](C)C(=O)O` [irrelevant control polypeptide, reference compound] ({FITC}-IALSIDSVEDHLAWSKDINA-OH), the “fluorescence in the dermal tissue of the skin” value with skin of SD rats was “no green fluorescence in the dermal tissue”.

In data set [1], “transdermal peptide with a nuclear localization ability: transdermal peptide with amino acid sequence as shown in SEQ ID NO: 1, enters eukaryotic cells autonomously (KKLFPKGVFTKELPSGKKYLR; Transdermal peptide)” gave an isoelectric point of 10.92.
